# Read-outs that look alike come from different tables or passages of the source.
# Columns and labels:
# [1] = Solubility in water by HPLC; format: physicochemical; settings: 25°C, mass of solute dissolved at saturation in 100 g of solvent
# Method: The solubility of the synthesized compounds in water was determined using high performance liquid chromatography (HPLC). First, 1.000 g of each compound was accurately weighed, placed in 100 g of water, and stirred at 25°C for a period of time. Then, the reaction system was allowed to stand for 1 h. The supernatant was quantitatively taken, diluted with methanol to volume, and centrifuged, and the solubility was determined using HPLC.
# [2] = tested on: lung cancer cells A549; test: MTT antiproliferative assay, A549; format: cell-based; settings: Homo sapiens
# Method: (§1) The human cancer cell lines A549, HepG2, MCF-7, Caco-2, and HeLa and the normal human liver cell line LO2 were all obtained from Shanghai Cell Bank of China. All cells were cultured in RPMI 1640 or DMEM supplemented with 10% fetal bovine serum, 100 U/mL penicillin, and 100 μg/mL streptomycin and incubated at 37°C under 5% CO2 (HEPA incubator class100 Thermo company). The medium was replaced three times a week. Cells used in all were in the exponential growth phase.
# (§2) The cell inhibition rate was evaluated using the MTT assay. Briefly, cells were seeded in a 96-well plate at a density of 3–4 × 10^3 cells per well and incubated at 37°C for 24 h. The MCACs to be tested were dissolved in dimethyl sulfoxide (DMSO, Merck, Germany) and diluted to five concentrations (3.75, 7.5, 15, 30, 60 μM/L) with RPMI 1640 medium, with each dose analyzed in quadruplicate. The concentration of DMSO was always maintained below 1‰, a concentration that is nontoxic to cells. After incubation for 24 or 48 h, MTT reagent (5 mg/mL) was added to each well and the samples were incubated for 3 h at 37°C in the dark. The absorbance of formazan crystals dissolved in 150 µL of DMSO was measured at 570 nm using a microplate reader to identify the cytotoxic effect of the analogues.
# [3] = tested on: colon cancer cells Caco-2; test: MTT antiproliferative assay, Caco-2; format: cell-based, human; settings: for SI Caco2: logarithm of ratio IC50 LO2 / IC50 cancer cells; for IC50: Homo sapiens, read-out: IC50 Caco2
# Method: as §1, §2
# [4] = tested on: normal human liver cell line LO2; test: MTT assay, normal liver cells LO2; format: cell-based
# Method: as §1, §2
# [5] = tested on: Caco-2 cells; test: Clonogenic assay; format: cell-based, human; settings: 4, 8, or 16 μM/L, 6 h exposure
# Method: Caco-2 cells were seeded into a 6-well plate at a density of 1 × 10^3 cells per well and incubated overnight. Then, the medium was replaced, and CA8 was added at the prescribed concentrations (4, 8, or 16 μM/L). After 6 h, the drug-containing medium was replaced with RPMI 1640 medium.
# Caco-2 cells in 6-well plates were incubated for 1–2 weeks until the appearance of the colonies, followed by staining with crystal violet and incubation for 1 h at room temperature. After staining, images were captured accordingly.
# [6] = tested on: Caco-2 cells; test: Hoechst 33,258 staining; format: cell-based, human; settings: Caco-2, 24 h
# Method: Caco-2 cells were seeded in 6-well plates at a density of 5 × 10^5 cells per well and incubated overnight, followed by the addition of the prescribed concentration (4, 8, or 16 μM/L) of CA8. After 24 h of incubation, cells were fixed and stained with Hoechst 33,258.
# [7] = tested on: Caco-2 cells; test: Apoptosis assay (Annexin V-FITC/propidium iodide flow cytometry); format: cell-based, human; settings: 4, 8, 16 μM, 24 h
# Method: The apoptotic effect of CA8 was assessed in Caco-2 cells according to the kit instructions. First, Caco-2 cells were treated with CA8 at dose of 4, 8, or 16 μM/L for 24 h. The cells were harvested and suspended in 500 μL annexin-binding buffer. Subsequently, the cells were stained with Annexin V-FITC for 15 min and then incubated with propidium iodide for 5 min at room temperature in the dark. Finally, all samples were evaluated via flow cytometry (FACS Calibur, BD, San Jose, CA, United States). The results obtained were analyzed using the FlowJo software, and the apoptotic rate was calculated.
# [8] = tested on: Caco-2 cells; test: Cell cycle analysis (flow cytometry); format: cell-based, human; settings: 4, 8, 16 μM, 24 h
# Method: Caco-2 cells treated with CA8 at dose of 4, 8, or 16 μM/L for 24 h, they were collected, washed with PBS, and fixed in 70% ethanol overnight. The fixed cells were washed twice with PBS, treated with RNase A (10 mg/mL) and resuspended in 50 μg/mL propidium iodide for staining. Finally, the cell cycle distribution was assessed via flow cytometry (BD Biosciences, CA).
# [9] = tested on: AKT, JNK, and NF-κB signaling pathways and apoptosis-related proteins; test: Western blot of signaling and apoptosis proteins in Caco-2 cells; format: cell-based, human; settings: 24 h
# Method: The expression of apoptotic proteins and pathways was detected using western blot. Caco-2 cells treated with CA8 at a dose of 4, 8, or 16 μM/L for 24 h were collected and lysed with RIPA lysis buffer for 10 min. The concentration of total proteins was determined using a BCA protein quantitative kit. Total proteins were separated on an SDS-PAGE gel, transferred to PVDF membranes and incubated with 5% skim milk for 2 h. Subsequently, the PVDF membranes were incubated with primary antibodies (AKT 1:2000; Bcl-2 1:2000; Bax 1:5000; caspase-3 1:2,000; caspase-9 1:1000; P-AKT 1:1000; JNK 1:1000; P-JNK 1:1000; IKBα 1:2000; and β-actin 1:100000) at 4°C overnight. The membranes were rinsed three times with TBST and incubated with secondary antibodies (1:5000 dilution) for 2–3 h at room temperature. Finally, proteins were visualized using an ECL chemiluminescent kit (KF001, affinity). In the final step, the ImageJ software was used to analyze the results.
# [10] = tested on: Ki67; test: Immunohistochemistry of tumor tissue; format: in vivo, BALB nude mice; settings: Caco-2 xenograft, 100 mg/kg
# [11] = Caco-2, 4, 8, 16 μM, vs control
compound,measurement,setting,value
COc1cc(/C=C2\CN(C(C)C)C/C(=C\c3cc(OC)c(O)c(OC)c3)C2=O)cc(OC)c1O [CA8],Solubility,[1],403.44 mg/100g
same,IC50,"[2]; A549, 24 h",5.66 ± 0.25 µM
same,IC50,"[2]; A549, 48 h",9.31 ± 1.08 µM
same,SI Caco2,[3]; 24 h,0.02
same,cytotoxicity on Caco-2 cells compared with CU,[3]; 48 h,19.2 times
same,SI Caco2,[3]; 48 h,0.07
same,IC50,"[3]; Caco-2, 24 h",4.06 ± 0.89 µM
same,IC50,"[3]; Caco-2, 48 h",1.71 ± 0.06 µM
same,IC50,[4]; 24 h,4.3 ± 0.21 µM
same,IC50,[4]; 48 h,2 ± 0.04 µM
same,Caco-2 colony formation,[5],showed Caco-2 colony formation inhibition
same,nuclear morphology / apoptotic cells,[6],many apoptotic cells were observed
same,induction of apoptosis,[7],induced more apoptosis than CU at high and medium concentrations
same,cell cycle arrest,[8],induced G2/M phase arrest in a concentration-dependent manner
same,"expression of Bax, caspase-3, and caspase-9","[9]; Caco-2, 4, 8, 16 μM",increased in a concentration-dependent manner
same,expression of P-AKT,[9]; [11],inhibited the expression of P-AKT
same,expression of P-JNK and IκBα,[9]; [11],induced the expression of P-JNK and IκBα in a concentration-dependent manner
same,expression of anti-apoptotic protein BCL-2,"[9]; Caco-2, high concentration",significantly inhibited
same,expression of Ki67 in tumor tissues,[10],significantly reduced the expression of Ki67
